Source: article PMC12142043, “Cell-based high-content approach for SARS-CoV-2 neutralization identifies unique monoclonal antibodies and PI3K pathway inhibitors” (Frontiers in Cell and Developmental Biology, 2025)

System: SARS-CoV-2 (USA-WA1/2020) in Calu-3 cells
Assay type: cell-based
Settings: Calu-3, 48 h; for dsRNA signal, AU High: high dose (10 µM); for dsRNA signal, AU Low: low dose (100 nM)

Molecule | dsRNA signal, AU High [AU] | dsRNA signal, AU Low [AU]
CCCCCCCCCCCCCC(=O)O[C@@H]1[C@@H](C)[C@@]2(O)[C@@H](C=C(CO)C[C@]3(O)C(=O)C(C)=C[C@@H]23)[C@@H]2C(C)(C)[C@]12OC(C)=O | 6922.4 | 0.0
2-D08 | 21678.5 | 7689.9
6H05 | 9210.5 | 25435.6
10058-F4 | 21785.0 | 24031.2
O=C(O)C(Cc1ccccc1[N+](=O)[O-])=NNc1nc(-c2ccc(Cl)c(Cl)c2)cs1 (mixture of isomers) [4EGI-1] | 27081.3 | 17726.3
COC(=O)C1=C(C)NC(C)=C(C(=O)O[C@@H]2CCCN(Cc3ccccc3)C2)[C@@H]1c1cccc([N+](=O)[O-])c1.Cl (racemic) [Benidipine HCl] | 130.4 | 31078.1
O=C(COc1ccc(Cl)cc1)NC1CCC(NC(=O)COc2ccc(Cl)cc2)CC1 (single isomer, unassigned) [ISRIB (trans-isomer)] | 6980.3 | 60689.2
CC(=O)c1c(O)c(C)c(O)c2c1OC1=CC(=O)C(C(C)=O)C(=O)C12C (single isomer, unassigned; (+)) [(+)-Usniacin] | 3049.6 | 59009.6
O=C1NC(=O)C(=Cc2ccc(-c3ccc(F)cc3)o2)S1 (stereo in doubt) [CAY10505] | 15375.8 | 16784.8
BrC1C(Br)C(Br)C(Br)C(Br)C1Br (stereo not shown) [1,2,3,4,5,6-Hexabromocyclohexane] | 58.9 | 23091.7
CCCCCCCCCCCC(=O)OC[C@H](CO)OC(=O)CCCCCCCCCCC [1,2-Dilauroyl-sn-glycerol] | 32229.3 | 52450.9
OCC1OC(O)CC(O)C1O [2-Deoxy-D-glucose] | 5572.7 | 62378.7
Cn1cnc(N)c2ncnc1-2 [3-Methyladenine] | 32357.3 | 26977.2
Cc1c[nH]c2ccccc12 [3-Methylindole] | 0.0 | 1602.7
O=C(CCl)c1c[nH]c2ccccc12 [3CAI] | 6736.4 | 43810.0
O=C(O)c1ccc(N2C(=O)/C(=C\c3ccc(-c4ccc([N+](=O)[O-])cc4)o3)C=C2c2ccccc2)cc1 [4E1RCat] | 11534.6 | 17206.1
Nc1ncnc2c1c(I)cn2[C@@H]1O[C@H](CO)[C@@H](O)[C@H]1O [5-Iodotubercidin] | 2639.0 | 20167.4
O=c1cc(-c2ccccc2)oc2c(O)c(O)ccc12 [7,8-Dihydroxyflavone] | 9230.6 | 39399.4
CCCCCCCC/C=C\CCCCCCCCCCCC(=O)O [13(Z)-Docosenoic Acid] | 4336.2 | 49926.0
Cc1[nH]nc2ccc(-c3cncc(OC[C@@H](N)Cc4ccccc4)c3)cc12 [A-674563] | 0.0 | 6156.4

Molecule | dsRNA signal, AU High [AU] | dsRNA signal, AU Low [AU]
Cc1c(NC(=O)OC[C@@H]2COCCN2)cn2ncnc(Nc3ccc4c(cnn4Cc4cccc(F)c4)c3)c12 [AC480 (BMS-599626)] | 468.1 | 62401.2
COCc1c(-c2ccc(NC(=O)Nc3cc(C(F)(F)F)ccc3F)c(F)c2)c2c(N)ncnn2c1CN1CCOCC1 [ACTB-1003] | 28009.9 | 9584.0
N#C/C(=C/c1ccc(O)c(O)c1)C(=O)NCc1ccccc1 [AG-490] | 8748.3 | 4415.8
CC(C)(C)c1cc(C=C(C#N)C#N)cc(Br)c1O [AG-1024] | 1211.9 | 44737.5
COc1cc2ncnc(Nc3cccc(Cl)c3)c2cc1OC [AG-1478] | 1676.2 | 67129.9
NC(=O)c1ncn([C@@H]2O[C@H](CO)[C@@H](O)[C@H]2O)c1N [AICAR] | 10649.1 | 34470.9
c1ccc(-c2oc3ncnc(NC[C@@H]4CCCO4)c3c2-c2ccccc2)cc1 [AIM-100] | 17272.0 | 4414.3
O=c1[nH]c2ccccc2n1C1CCN(Cc2ccc(-c3nc4cc5[nH]cnc5cc4nc3-c3ccccc3)cc2)CC1 [AKT inhibitor VIII] | 14379.0 | 47838.1
O=C(Nc1ccccc1C(=O)NC1CCCCNC1=O)c1cc2ccccc2s1 (stereo not shown) [ANA 12] | 5083.5 | 20498.0
c1cc(Nc2cc(C3CC3)[nH]n2)nc(Nc2ccc3nc[nH]c3c2)n1 [APY29] | 1195.6 | 15781.0
COc1ccc(CNC(=O)Nc2ncc([N+](=O)[O-])s2)cc1 [AR-A014418] | 79.4 | 22152.5
N#CC(c1ccnc(NCCc2cccnc2)n1)c1nc2ccccc2s1 (stereo not shown) [AS601245] | 18398.2 | 6237.2
O=C1NC(=O)/C(=C\c2ccc3nccnc3c2)S1 [AS-605240] | 11785.5 | 49405.3
COc1cc(N2CCC(N3CCN(C)CC3)CC2)ccc1Nc1ncnc(Nc2ccccc2S(=O)(=O)C(C)C)n1 [ASP3026] | 11916.3 | 27995.4
CCN1CCN(Cc2ccc(NC(=O)Nc3ccc(Oc4cc(NC)ncn4)cc3)cc2C(F)(F)F)CC1 [AST 487] | 7505.2 | 5709.8
Cl.O=C(NC1CCNCC1)c1[nH]ncc1NC(=O)c1c(Cl)cccc1Cl [AT7519 Hydrochloride] | 0.0 | 18031.2
Clc1ccc(C2(c3ccc(-c4cn[nH]c4)cc3)CCNCC2)cc1 [AT7867] | 150.0 | 6554.9
C=CC(=O)Nc1cccc(Nc2nc(Nc3ccc(OCCOC)cc3)ncc2F)c1 [AVL-292] | 20034.7 | 9433.9
N#Cc1ccc2[nH]c(O)c(-c3ccc(CN4CCOCC4)cn3)c2c1 [AZD1080] | 30210.5 | 12322.5
CC(C)n1c(=O)n(C)c2cnc3cc(F)c(-c4ccc(OCCCN5CCCCC5)nc4)cc3c21 [AZD1390] | 7959.8 | 37767.2

Molecule | dsRNA signal, AU High [AU] | dsRNA signal, AU Low [AU]
CNC(=O)c1cccc(-c2ccc3c(N4CCOC[C@@H]4C)nc(N4CCOC[C@@H]4C)nc3n2)c1 [AZD2014] | 4130.5 | 12584.4
CN1CCN(S(=O)(=O)c2ccc(-c3cnc(N)c(C(=O)Nc4cccnc4)n3)cc2)CC1 [AZD2858] | 10014.5 | 6684.6
Cc1noc(C)c1-c1ccc(-c2cc(C(N)=O)c(NC(N)=O)s2)c(O[C@H]2CCNC2)c1 [AZD3264] | 223.2 | 47155.4
Cn1cnc2c(F)c(Nc3ccc(Br)cc3Cl)c(C(=O)NOCCO)cc21 [AZD6244 (Selumetinib)] | 7299.3 | 3732.5
C[C@@H]1COCCN1c1cc(C2([S@](C)(=N)=O)CC2)nc(-c2cc[nH]c3nccc2-3)n1 [AZD6738] | 290.6 | 16844.7
COc1ccc(-c2ccc3c(N4CCOC[C@@H]4C)nc(N4CCOC[C@@H]4C)nc3n2)cc1CO [AZD8055] | 0.0 | 39910.8
C[C@@H](Nc1cc(F)cc(F)c1)c1cc(C(=O)N(C)C)cc2c(=O)cc(N3CCOCC3)oc12 [AZD8186] | 4769.3 | 35908.0
Cc1cc(C(=O)NOCCO)c(Nc2ccc(I)cc2F)n(C)c1=O [AZD8330] | 29149.3 | 63631.5
COc1cc(N2CCC(N)CC2)ccc1Nc1ncc(Cl)c(-c2c[nH]c3ccccc23)n1 [AZD-3463] | 9390.1 | 40804.7
Cc1ncc(-c2ccnc(Nc3ccc(S(C)(=O)=O)cc3)n2)n1C(C)C [AZD-5438] | 10643.7 | 32871.5
CN(C)C/C=C/C(=O)Nc1cc2c(Nc3ccc(F)c(Cl)c3)ncnc2cc1O[C@H]1CCOC1 [Afatinib (BIBW2992)] | 1924.8 | 12314.4
CN(C)C/C=C/C(=O)Nc1cc2c(Nc3ccc(F)c(Cl)c3)ncnc2cc1O[C@H]1CCOC1 [Afatinib dimaleate] | 15371.8 | 40279.2
O=C(Nc1cc(Oc2cc(F)c(NC(=O)C3(C(=O)Nc4ccc(F)cc4)CC3)cc2F)ccn1)C1CC1 [Altiratinib] | 7645.1 | 34585.3
CC(C)c1ccc2oc3nc(N)c(C(=O)O)cc3c(=O)c2c1 [Amlexanox] | 17956.6 | 28672.3
S=C(NCc1ccc2c(c1)OCO2)N1CCN(c2ncnc3c2oc2ccccc23)CC1 [Amuvatinib (MP-470, HPK 56)] | 6649.7 | 32179.3
COc1ccc(C[C@H]2NC[C@H](O)[C@H]2OC(C)=O)cc1 [Anisomycin] | 20082.7 | 2629.3
N#CC1(c2ccc(NC(=O)c3cccnc3NCc3ccncc3)cc2)CCCC1 [Apatinib] | 181.1 | 36614.7
O=c1cc(-c2ccc(O)cc2)oc2cc(O)cc(O)c12 [Apigenin] | 1738.8 | 15810.5
C[C@@H]1CC[C@H]2[C@@H](C)C(=O)O[C@@H]3O[C@@]4(C)CC[C@@H]1[C@]32OO4 [Artemisinine] | 2826.9 | 35035.3
